Measured values reported in publication PMC12108296, “Physicochemical Characterization of Kynurenine Pathway Metabolites” (Antioxidants, 2025).
Several values for one entry are separate records, joined by “and”; a condition that tells them apart may be missing. Equal entries are not always repeated. Where two headings read alike, the source gives them in different places.

Assays:
[1] = pH-potentiometric titration (pKa); type: physicochemical
Protocol: An ECO automatic titrator (Metrohm AG, Herisau, Switzerland) with a Metrohm 6.0234.110 combined pH glass electrode was used for the potentiometric titrations under automatic PC control. The electrode was calibrated with aqueous standard buffer solutions. Constant temperature (298.15 ± 0.1 K) was provided by a thermostated double-walled glass cell. Difference titrations were carried out in the absence (blank) and presence of the titrand. First, 2 mL of 0.1 mol/L HCl solutions were titrated with 0.1 mol/L KOH. A constant ionic strength of 0.15 mol/L was provided by the presence of KCl. Next, a titrand was added to the same volume of HCl solution and subsequently titrated with KOH. The initial concentration of the titrand was around between 3 and 6 mmol/L in the titrations. Non-linear parameter fitting provided the dissociation constants from the interpolated volume differences. Potentiometric titrations were performed in triplicates, and the resulting pKa values are reported with ± standard error of the three fitted values.

[2] = 1H NMR-pH titration (macroscopic and microscopic pKa); type: physicochemical; settings: for pKa: H2O/D2O 95:5 (v/v); for predominant protonation/charge form at physiological pH: physiological pH (7.4), from the determined acid-base constants; for pKaC^A (NMR): second step dissociation microconstant of the aromatic ammonium group; for pKaA^C (NMR): second step dissociation microconstant of the carboxyl group
Protocol: NMR spectra were recorded on a 400 MHz Varian Mercury Plus spectrometer equipped with a 5 mm Varian 400 Automation Triple Resonance Broadband Pulsed Field Gradient probe at 298.15 ± 0.1 K. The solvent was H2O/D2O 95:5 (v/v), the solution contained around 5 mmol/L titrand, and the ionic strength was adjusted to 0.15 mol/L. The pH values were adjusted with 2–5 mol/L HCl or NaOH (in order to avoid substantial dilution of the solution) and determined in situ by internal indicator molecules optimized for ^1H NMR [27, 28]. The sample volume was 500 μL containing DSS (3-(trimethylsilyl)propane-1-sulfonate) as a chemical shift reference. The H2O ^1H signal was suppressed with a WET sequence; the average acquisition parameters for ^1H measurements are number of transients = 8, number of points = 65,536, acquisition time = 3.33 s, and relaxation delay = 1.5 s. All spectra were processed using the MestReNova v9.0.1-13254 (Mestralab Research, S.L., Santiago de Compostela, Spain) software. NMR-pH titrations were performed once, and resulting pKa values are reported with ± standard error of the model fit.
The corollary of this assumption is not so obvious, however: the aliphatic ^1H NMR signals are relatively close to the aromatic amino group (in terms of covalent distance), especially the methylene group (5 covalent distance), therefore selectivity of aliphatic ^1H NMR signals in favor of aliphatic ammonium and carboxyl dissociation is dubious. This, however, can be exploited: the titration curve of the methylene group thus affords all three macroconstants, including Ka1, Ka2 in the acidic region (Equation (1)), while the aromatic and αCH ^1H NMR signals selectively afford the microconstants KaC^A (second step dissociation microconstant of the aromatic ammonium group), KaA^C (second step dissociation microconstant of the carboxyl group) (Equation (2)). […] Note that Equation (2) in its current form applies to the titration curves of the aromatic signals; for the αCH signal, Equation (2) is rewritten with KaC^A and KaA^C exchanged. For the curve fitting of Equation (2), the macroconstants are treated as fixed parameters transferred from the fitting of Equation (1).(1) δobs=δL+δHL·Ka2·10^−pH+δH2L·Ka1·Ka2·10^−2·pH/1+Ka2·10^−pH+Ka1·Ka2·10^−2·pH (2) δobs=δL·1+KaCA·10^−pH+δHL·KaAC·10^−pH+Ka1·Ka2·10^−2·pH/1+Ka2·10^−pH+Ka1·Ka2·10^−2·pH
The remaining dissociation microconstants (Ka^C and Ka^A) were calculated using Equation (3). Modern theoretical considerations of acid-base microconstant determination can be found in the works of Noszál and Borkovec, while some examples can be found in recent works.(3) pKa1+pKa2=pKaA+pKaAC=pKaC+pKaCA
The titration of 3-hydroxykynurenine (Figure 5) was treated the same way as for kynurenine, with the difference that 3-hydroxykynurenine has an overlapping dissociation in the basic pH region as well (the primary aliphatic ammonium dissociation overlaps with the dissociation of the phenol group). The same principle can be applied to the macro- and microconstant determination of kynurenine; only the last two macroconstants were transferred from potentiometric titration data since the latter is more precise than NMR-pH determined values and the chemical shift response of the methylene group towards the phenol dissociation (6 covalent distance) is not expected to be reliable. Otherwise, the microconstants of the basic pH range (KaACN^O—phenol group, KaACO^N—primary aliphatic ammonium group) were determined by fitting an analog (featuring Ka3 and Ka4) of Equation (2) to the titration data of all ^1H NMR signals. Note that the fitted pKaACN^O falls very close to the calculated pKaAC^N; therefore, to ensure a decreasing sequence of Ka values in every microscopic protonation pathway, an additional constraint was used during fitting: pKaACN^O be greater than the mean of pKa3 and pKa4. […]

[3] = UV-pH titration (pKa); type: physicochemical; settings: for pKa: aqueous HCl/NaOH solutions of varying pH
Protocol: UV spectroscopic measurements were carried out on a Jasco V-550 diode-array spectrometer (Jasco Ltd., Tokyo, Japan) with 10 mm quartz cuvettes at 298 K. The titrand was diluted with an acidic (HCl) and a basic (NaOH) stock solution to the same analyte concentration (adjusting ionic strength to 0.15 mol/L). In the case of kynurenic acid, a saturated acidic solution was diluted 10 times with HCl and NaOH, respectively, to obtain the stock solutions. Sample solutions with varying pH were prepared by mixing the two stock solutions in varying ratios. pH values were read on a Metrohm 2.780.0010 precision pH meter with a 6.0258.600 Unitrode glass Pt 1000 electrode (Metrohm AG, Herisau, Switzerland), and the pH-potentiometric system was calibrated using standard buffer solutions.

[4] = cited from earlier work; for pKa (first value) / pKa (second value): no mention of experimental methods
[5] = test system: ROS; design: method as in PMID 21763768; settings: cited from earlier work
[6] = in vitro parallel permeability assay (PAMPA); type: in vitro ADME; settings: passive transport only
Protocol: To further obtain additional information regarding the microspeciation scheme, the synthesis of methyl ester derivatives was attempted since these model compounds could provide the value of microconstants for cases where the carboxylic acid group is undissociated. […] In the first attempt, the compounds were each dissolved with 1-ethyl-3-(3-dimethylaminopropyl)carbodiimide (EDAC) and triethylamine in dichloromethane, and after fifteen minutes, methanol was added to the mixture, which was stirred overnight at room temperature. After this, the solution was washed with saturated sodium bicarbonate solution and distilled water. The organic phase was dried over sodium sulfate and then removed from the rotary evaporator. In the second attempt, the compounds were each dissolved in methanol, and the solution was cooled to 0 °C. Thionyl chloride was added dropwise, and the mixture was stirred at the same temperature for four hours. Then, the solvent was removed from the rotary evaporator, yielding an oily residue. […] The measurement of lipophilicity and membrane penetration of kynurenine and 3-hydroxykynurenine was also attempted; however, due to the extremely low predicted logP value of these compounds, it was not unexpected that obtaining such experimental data would not be feasible. […]

[7] = aqueous HCl solution with KCl, titrated with KOH, unreliable, since two values could not be fitted, read-out: single pKa fitted in the acidic pH region (pH potentiometry titration)
[8] = first step microconstant of the aromatic ammonium group, calculated using Equation (3), read-out: pKa^A
[9] = first step microconstant of the carboxyl group, calculated using Equation (3), read-out: pKa^C
[10] = macroconstant from methylene signal, 298.15 K, ionic strength 0.15 mol/L, read-out: pKa1 (NMR)
[11] = macroconstant from methylene signal, 298.15 K, ionic strength 0.15 mol/L, read-out: pKa2 (NMR)

## Nc1c(O)cccc1C(=O)CC(N)C(=O)O (stereo not shown) [3-hydroxykynurenine]
[1]; aqueous HCl solution with KCl, titrated with KOH, macroconstant, 298.15 K, ionic strength 0.15 mol/L, read-out: pKa3 (potentiometry)
  pKa: 8.65
[1]; aqueous HCl solution with KCl, titrated with KOH, macroconstant, 298.15 K, ionic strength 0.15 mol/L, read-out: pKa4 (potentiometry)
  pKa: 9.55
[1]; [7]
  pKa: 2.53 ± 0.03
[2]; [8]
  pKa: 1.82
[2]; [9]
  pKa: 1.91
[2]; [10]
  pKa: 1.56
[2]; [11]
  pKa: 2.69
[2]; microconstant of the aliphatic ammonium group, phenol still protonated, calculated
  pKaAC^N: 9.08
[2]; microconstant of the phenol group, aliphatic ammonium still protonated, calculated
  pKaAC^O: 8.85
[2]; microconstant of the phenol group, basic pH range, fit constrained to exceed mean of pKa3 and pKa4
  pKaACN^O (NMR): 9.12
[2]; microconstant of the primary aliphatic ammonium group, basic pH range
  pKaACO^N (NMR): 9.35
[2]
  predominant protonation/charge form at physiological pH: zwitterionic form
  pKaC^A (NMR): 2.34
  pKaA^C (NMR): 2.43

## O=C(O)c1cc(=O)c2ccccc2[nH]1 [kynurenic acid]
[1]; aqueous HCl solution with KCl, titrated with KOH, value is unreliable due to precipitate formation, read-out: pKa fitted (pH potentiometry titration)
  pKa: 3.1 ± 0.1
[1]; below pH 3, no issue above pH 3
  solubility behaviour during titration: precipitation
[2]; potentiometric and NMR-pH titration attempts
  dissociation step above pH 7 until 13: no dissociation step
[3]; 10-fold diluted saturated solution, 298 K, ionic strength 0.15 mol/L, read-out: pKa (UV-pH titration, full spectrum measurement)
  pKa: 2.44 ± 0.02
[3]; single dissociation step, UV-pH titration, 298 K, ionic strength 0.15 mol/L, read-out: pKa1 (UV)
  pKa: ~2.4
[3]; single dissociation step, UV-pH titration, 298 K, ionic strength 0.15 mol/L
  pKa1 (UV): 2.43
[4]; radical form
  pKa of the radical form: 5.5
[5]
  concentration that can abolish iron(II) sulfate-induced ROS production: exceeding 100 µM

## Nc1ccccc1C(=O)C[C@H](N)C(=O)O [kynurenine]
[1]; aqueous HCl solution with KCl, titrated with KOH, 298.15 K, ionic strength 0.15 mol/L, read-out: pKa fitted in the basic pH region (pH potentiometry titration)
  pKa: 9.13 ± 0.02
[1]; [7]
  pKa: 2.39 ± 0.04
[2]; [8]
  pKa: 1.39
[2]; [9]
  pKa: 1.63
[2]; [10]
  pKa: 1.19
[2]; [11]
  pKa: 2.49
[2]; macroconstant, aliphatic ammonium, 298.15 K, ionic strength 0.15 mol/L, read-out: pKa3 (NMR)
  pKa: 9.33
[2]
  predominant protonation/charge form at physiological pH: zwitterionic form
  pKaC^A (NMR): 2.05 ± 0.04 and 2.05
  pKaA^C (NMR): 2.29 ± 0.03 and 2.29
[3]; second step dissociation microconstant of the aromatic ammonium group
  pKaC^A (UV-pH titration): 2.08 ± 0.2
[3]; second step dissociation microconstant of the carboxyl group
  pKaA^C (UV-pH titration): 2.33 ± 0.05
[6]
  membrane penetration/retention (PAMPA): no detectable membrane penetration/retention

## O=C(O)c1ccccn1 [picolinic acid]
[1]; aqueous HCl solution with KCl, titrated with KOH, triplicate, ± standard error, 298.15 K, ionic strength 0.15 mol/L, read-out: pKa2 (potentiometry)
  pKa: 5.22 ± 0.01
[1]; aqueous HCl solution with KCl, titrated with KOH, extreme acidic pKa of the carboxyl group, rough estimate, single nonlinear curve fit, 298.15 K, ionic strength 0.15 mol/L, read-out: pKa1 (by extrapolation of potentiometry)
  pKa: ~0.63
[1]; aqueous solution, ionic strength 0.15 mol/L, both titration techniques, 298.15 K, ionic strength 0.15 mol/L, read-out: pKa2 (mean of potentiometry and NMR)
  pKa: ~5.2
[1]; both titration techniques, 298.15 K, ionic strength 0.15 mol/L
  pKa2 (mean of potentiometry and NMR): 5.21
[1]; extreme acidic pKa of the carboxyl group, rough estimate, single nonlinear curve fit, 298.15 K, ionic strength 0.15 mol/L
  pKa1 (by extrapolation of potentiometry): ~0.6
[2]; ± standard error of fit, 298.15 K, ionic strength 0.15 mol/L, H2O/D2O 95:5, read-out: pKa (NMR-pH titration)
  pKa: 5.19 ± 0.02
[2]; slight systematic shift below pH 1.5, outside the range of determination
  pH of a further dissociation step indicated by shift of NMR signals: < 1
[4]; ref 25
  pKa (first value): 1.0
  pKa (second value): 5.4
[4]; ref 26
  pKa (first value): 1.07
  pKa (second value): 5.25
